Assay results: US5288723A, “A composition and a method of using veratridine and epinephrine as a local anesthetic” (priority 1991, dated 1994)
“Also recorded” adds a separate entry of the source. Where two headings read alike, the source gives them in different places.

Key:
[1] = system: C-fibers of rabbit vagus nerve; assay: Extracellular recording of compound action potentials (APc), desheathed vagus nerve, C-fibers; set-up: species or system New Zealand white rabbit; settings: for inhibition at 0.5 µM: 1 h, mean ± SEM; for inhibition at 0.5 µM / activity at 0.5 µM: 0.5 μM VTD; for activity at 0.5 µM: read-out: Amplitude of single APc elevation relative to amplitude at beginning of VTD exposure
Experimental: Adult male New Zealand white rabbits (3±0.5 kg) were pretreated intramuscularly with a mixture of ketamine (200 mg), xylazine (20 mg) and atropine (0.4 mg) for sedation. Ten minutes after this treatment, the animals were anesthetized with diethyl ether. After cessation of respiration, a longitudinal skin incision was made, and the cervical portion of both vagus nerves was dissected. The vagus nerves were temporarily stored at room temperature (22° C.) in a beaker containing modified HEPES Liley (HL) solution stirred constantly by aeration with a mixture of 95% oxygen and 5% carbon dioxide.
The modified HL solution used for bathing the nerve and subsequent drug perfusion consisted of (in mM): NaCl, 118.0; KCl, 5.0; CaCl2 2H2 0, 2.0; MgCl2 6H2 0, 1.0; α-D(+)-glucose, 11.0; NaHC03, 25.0; and N-2-hydroxy-ethylpiperazine-N-2-ethanesulfonic acid (HEPES) buffer, 5.0 mM. The pH was adjusted to 7.4±0.05 by addition of 1 N NaOH. The perfusion solution was bubbled with a gas mixture of 95% oxygen and 5% carbon dioxide at a vigorous rate just before flowing onto the nerve. The pH was stabilized by the HEPES buffer and maintained at 7.4.
VTD free base (no. V-5754, lot 58F-7828, Sigma, St. Louis, Mo.) was stored in a desiccator below 0° C. and was used to prepare a 2 mM stock solution in dimethyl sulfoxide [DMSO], Fisher Scientific, lot 861316), which also was stored at below 0° C. VTD, a steroidal alkaloid (FIG. 2A) that is produced by certain lilies, has a solubility limited to approximately 10^-3 M in aqueous slat solutions [Kupchan and By, "The Veratrum Group," in Alkaloids, Vol. 10, Manske, R.H.F. (ed.), New York, Academic Press (1968), pp. 193-285]. The stock VTD solution was diluted to final concentrations of 0.2-10 μM by the addition of HL. The maximum equivalent content of DMSO is 0.5%, and in three control experiments we detected no change in electrophysiologic behavior with 1% DMSO.
The nerves were cleaned and desheathed by microdissection before mounting in an airtight chamber (FIG. 2B) [Gissen et al., Anesthesiology 53:467-474 (1980)]. Petroleum jelly (White Petrolatum, Denison Laboratories) seals separated a central, 11-mm length of the nerve from the lateral pools, used for stimulating and recording with electrodes made of platinum wire. The central section of the chamber (volume 0.25 ml) was perfused with HL solution at 0.5 ml.min.^-1. The lateral pools containing the moistened ends of the nerves adsorbed to the electrodes were filled with paraffin oil. The APc s were propagated over 21 mm, from the stimulating to the recording electrodes, with the proximal recording electrodc located 4.5 mm from the edge of the central, drug exposure chamber. Thus, measured APc s were conducted in nerve exposed to drug for half of the conduction pathway, and had been conducting through drug-free medium over a distance containing at least two or three nodes of Ranvier (in the fastest-conducting fibers), before reaching the recording electrodes.
The signal from the nerve was amplified 50 times (model AK 475 operational amplifier, Metametrics, Carlisle, Mass.) and passed to the oscilloscope preamplifiers (model 5A 22N, Tektronix). The preparation was not considered acceptable unless the APc signals from the nerve exceeded 1.5 mV for A-fibers, 0.5 mV for B-fibers, and 0.3 mV for C-fibers.
Each nerve was exposed to only one VTD concentration, and each concentration was tested in four or five separate nerves, except in tie sheathed nerves, for which only two nerves were used. The temperature was 20°-22° C.
The standard protocol used for testing the action of VTD was to record the APc elevations in control HL solution for 30-60 min. before adding VTD; for 60-75 min. during VTD application; and for 60-75 min. after replacement with VTD-free HL. […]

[2] = Toxic signs (salivation) in rats after sciatic nerve injection; format: in vivo, Male Sprague-Dawley rats; settings: for fraction salivating: 0.1 ml
Experimental: Male Sprague-Dawley rats (200-250 g) were divided into 4 groups of 10 each. 0.1 ml of VTD alone at 0.2, 0.5 or 0.7 mM or vehicle (saline) was injected at the depression between the femoral head and the hip. The same animals were injected with VTD with epinephrine (EPI, 1:200,000) one week later, using the previously uninjected leg. Motor and sensory functions were rated by the respective monitoring of toe curling and/or foot dragging, and by testing the nocifensive withdrawal reflex to pinch of the foot pad of the injected hindlimb. Saline alone affected neither function.

[3] = aqueous slat solutions; limited to approximately; cited from earlier work
rat sciatic nerve = assay: Motor block of rat sciatic nerve in vivo (toe curling and/or foot dragging); set-up: species or system Male Sprague-Dawley rats
[4] = on average; cited from earlier work

Compound: COc1ccc(C(=O)OC2CCC3(C)C4CCC5C6(O)CC(O)C7(O)C(CN8CC(C)CCC8C7(C)O)C6(O)CC53OC24O)cc1OC (stereo not shown) [VTD, veratridine]
- Use-dependent reduction of APc by VTD, C-fibers ([1]; 0-2.0 μM (FIG. 7C), at relatively low frequencies): diminished most; also recorded: greatest for the C-fiber component
- Use-dependent inhibition and slowing of C-fiber APc ([1]; 2 μM VTD, 5 Hz, second through tenth APc, 15-20 min. exposure): slowed conduction and reduced amplitude
- Single-stimulus APc after VTD compared with no-VTD controls ([1]; C-fibers, 0.5 μM, 60 min. in VTD, P<0.005): significant enhancement
- Longer latency of the second wave vs the first wave ([1]; C-fibers, 2 μM VTD, 5 Hz (FIG. 6B)): about 20%
- Reversal of use-dependent depression by washing ([1]; C-fibers, VTD-free HL wash): partial reversal
- Recovery time of APc after stimulation ceased ([1]; C-fibers, sometimes as long as, depending on VTD concentration): 1 to 2 min
- inhibition at 0.5 µM ([1]; Oryctolagus cuniculus, C-fibers, 10 Hz, after 60 min. in VTD, P < 0.001 vs control, read-out: Percent inhibition of the tenth APc in a train compared to the first, VTD): 54.6 ± 3.8%
- inhibition at 0.5 µM ([1]; Oryctolagus cuniculus, C-fibers, 10 Hz, after 60 min. wash, read-out: Percent inhibition of the tenth APc in a train compared to the first, HL (Wash)): 34.6 ± 3.8%
- activity at 0.5 µM ([1]; Oryctolagus cuniculus, C-fibers, during VTD exposure): 111 ± 5%
- activity at 0.5 µM ([1]; Oryctolagus cuniculus, C-fibers, wash period): 133 ± 15%
- inhibition at 0.2 µM ([1]; Oryctolagus cuniculus, 0.2 μM VTD, 10 Hz, after about 1 h of wash-out, read-out: C-fiber use-dependent inhibition after VTD wash-out): 22%
- Toxic signs, including profuse salivation ([2]; 0.5 and 0.7 mM VTD alone): 14/20
- fraction salivating ([2]; [VTD] 0.2 mM): 0/10
- fraction salivating ([2]; [VTD] 0.5 mM): 4/10
- fraction salivating ([2]; [VTD] 0.7 mM): 10/10
- Solubility [3]: approximately 10^-3 M
- Duration of motor block (summary) (rat sciatic nerve; VTD alone, 0.2-0.7 mM, approximately): 100 to 300 min
- fraction block, MOTOR (rat sciatic nerve; [VTD] 0.2 mM, 0.1 ml): 8/10
- onset, MOTOR (rat sciatic nerve; [VTD] 0.2 mM, 0.1 ml, mean ± SEM): 13 ± 2 min
- fraction block, MOTOR (rat sciatic nerve; [VTD] 0.7 mM, 0.1 ml): 5/10
- Duration of nerve block compared with bupivacaine and lidocaine (rat sciatic nerve; rat sciatic nerve): longer duration than both
- Fraction of drug molecules ionized [4]: more than 90%
